Results reported in PMC6039382 (Journal of Cardiovascular Pharmacology, 2018).
Positions count from the first letter of the chain named. Entries after “also recorded” stand apart in the source; their conditions may differ.

Tests used:
[1] = system: PPAR-α; details: cited from earlier work
[2] = system: PPAR-γ; test: PPAR-γ agonist transactivation, statements made jointly for all species; type: cell-based, human, mouse, rat
[3] = target: T1, rat PPAR-α (Rattus norvegicus, UniProt P37230); test: PPAR-α agonist transactivation assay, Gal4-LBD luciferase reporter cells; type: cell-based; details: gemcabene up to 300 μM
T1 sequence (P37230 239-466 limits assumed): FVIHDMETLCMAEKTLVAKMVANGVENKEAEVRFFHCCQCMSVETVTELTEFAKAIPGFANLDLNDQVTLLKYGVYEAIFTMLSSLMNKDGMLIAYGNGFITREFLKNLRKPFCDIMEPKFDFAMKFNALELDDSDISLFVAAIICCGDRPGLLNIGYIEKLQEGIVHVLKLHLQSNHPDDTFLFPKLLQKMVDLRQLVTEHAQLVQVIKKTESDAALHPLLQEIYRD

[4] = target: T2, human PPAR-α (Homo sapiens, UniProt Q07869); test: as above; type: cell-based
T2 sequence (Q07869 239-466 limits assumed): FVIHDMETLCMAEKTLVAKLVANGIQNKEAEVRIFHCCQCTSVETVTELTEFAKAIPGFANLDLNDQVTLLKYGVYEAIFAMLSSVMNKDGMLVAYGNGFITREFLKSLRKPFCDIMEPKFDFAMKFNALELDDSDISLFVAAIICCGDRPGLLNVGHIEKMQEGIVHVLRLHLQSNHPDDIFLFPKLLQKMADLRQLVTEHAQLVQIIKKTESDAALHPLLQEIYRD

[5] = target: T3, mouse PPAR-α (Mus musculus, UniProt P23204); test: as above; type: cell-based; details: gemcabene up to 300 μM
T3 sequence (P23204 239-466 limits assumed): T1 sequence (P37230 239-466 limits assumed) with N27D

[6] = target: T4, human PPAR-γ (Homo sapiens, UniProt P37231); test: PPAR-γ agonist transactivation assay, Gal4-LBD luciferase reporter cells
T4 sequence (P37231 238-503 limits assumed): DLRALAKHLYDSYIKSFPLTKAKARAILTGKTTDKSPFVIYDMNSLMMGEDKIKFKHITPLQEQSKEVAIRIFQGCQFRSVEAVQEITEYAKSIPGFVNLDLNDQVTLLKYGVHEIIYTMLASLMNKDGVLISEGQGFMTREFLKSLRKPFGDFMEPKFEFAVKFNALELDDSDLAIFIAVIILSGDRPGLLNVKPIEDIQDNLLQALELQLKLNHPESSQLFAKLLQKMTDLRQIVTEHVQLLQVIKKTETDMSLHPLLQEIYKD

For `Cc1ccc(C)c(OCCCC(C)(C)C(=O)O)c1` [Gemfibrozil], the “IC50/EC50 [Literature]” value [1] is listed as 193 µM.
In the case of `CN(CCOc1ccc(CC2SC(=O)NC2=O)cc1)c1ccccn1` (centres unmarked) [Rosiglitazone], the “Comments / agonist activity in words” value [2] is reported as “strong activation; also recorded: potent agonist activity”.
For `COc1ccc(OC(=O)N(CC(=O)O)Cc2ccc(OCCc3nc(-c4ccccc4)oc3C)cc2)cc1` [Muraglitazar], the “agonist activity (in words)” value [3] was “not against mouse and rat PPAR-α”, the maximal activation [4] was 19 fold and the “agonist activity (in words)” value ([4]; gemcabene up to 300 μM) was “agonist activity”. For the same molecule, the “agonist activity (in words)” value [5] was “not against mouse and rat PPAR-α”, the “agonist activity (in words)” value [6] was “agonist activity” and the activation ([6]; maximal) was 16 fold.
